This passage reports Ki results from ChEMBL document CHEMBL1144995, “Carbonic anhydrase inhibitors. Inhibition of tumor-associated isozyme IX by halogenosulfanilamide and halogenophenylaminobenzolamide derivatives” (J Med Chem, 2003).

The target in experiment [1] is Carbonic anhydrase 9 (Homo sapiens, UniProt Q16790).
Description: Inhibition constant determined against catalytic domain of human cloned carbonic anhydrase IX
In experiment [2] the target is T1, Carbonic anhydrase 4 (Bos taurus, UniProt Q95323).
T1 sequence (Q95323 whole entry): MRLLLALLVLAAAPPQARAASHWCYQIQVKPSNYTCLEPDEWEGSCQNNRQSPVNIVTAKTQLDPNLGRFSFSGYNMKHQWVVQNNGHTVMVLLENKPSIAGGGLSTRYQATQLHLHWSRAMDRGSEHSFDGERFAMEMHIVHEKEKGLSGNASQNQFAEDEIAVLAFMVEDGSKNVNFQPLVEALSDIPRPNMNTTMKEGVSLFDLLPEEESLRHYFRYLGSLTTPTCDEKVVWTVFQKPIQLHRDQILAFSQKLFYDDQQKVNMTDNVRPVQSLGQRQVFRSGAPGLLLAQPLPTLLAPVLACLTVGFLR
Description: Inhibition constant against bovine Carbonic anhydrase IV, isolated from lung microsomes

Experiment [3] deals with Carbonic anhydrase 2 (Homo sapiens, UniProt P00918).
Description: Inhibition constant (Ki) against human cloned carbonic anhydrase II (CAH)
The target of experiment [4] is Carbonic anhydrase 1 (Homo sapiens, UniProt P00915).
Carbonic anhydrase 1, sequence (P00915 whole entry): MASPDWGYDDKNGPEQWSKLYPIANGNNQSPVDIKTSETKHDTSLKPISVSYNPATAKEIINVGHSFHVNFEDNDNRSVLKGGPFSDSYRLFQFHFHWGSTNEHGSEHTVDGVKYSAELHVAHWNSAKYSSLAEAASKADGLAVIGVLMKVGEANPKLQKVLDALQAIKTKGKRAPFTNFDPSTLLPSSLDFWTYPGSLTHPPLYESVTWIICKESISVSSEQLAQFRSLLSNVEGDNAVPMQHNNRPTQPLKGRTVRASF
Description: Inhibition constant determined against human cloned carbonic anhydrase I

Each structure is given as a SMILES string. pKi: −log10 of the molar value.

For orientation: pKi means −log10 of the Ki, conventionally taken in molar units. Low readings indicate a high Ki, high ones a low Ki. For `CC(=O)Nc1ccc(S(=O)(=O)Nc2nnc(S(N)(=O)=O)s2)cc1Br`, the pKi in experiment [1] is 7.11; in experiment [2] it was 8.34; in experiment [3] it was 8.82; in experiment [4], 8.30.

Turning to `CC(=O)Nc1ccc(S(=O)(=O)Nc2nnc(S(N)(=O)=O)s2)cc1Cl`, the pKi in experiment [1] was 7.15; in experiment [2], 8.38; in experiment [3] it was 8.89; in experiment [4], 8.27.

Consider `CC(=O)Nc1ccc(S(=O)(=O)Nc2nnc(S(N)(=O)=O)s2)cc1F`, for which the pKi in experiment [1] is 7.10; in experiment [2], 8.40; in experiment [3] it was 8.92; in experiment [4] it was 8.24.

In the case of `CC(=O)Nc1ccc(S(=O)(=O)Nc2nnc(S(N)(=O)=O)s2)cc1`, the negative-log Ki (pKi) was 7.12 in experiment [1], 8.09 in experiment [2], 8.51 in experiment [3] and 7.99 in experiment [4].

Turning to `Nc1c(Cl)cc(S(=O)(=O)Nc2nnc(S(N)(=O)=O)s2)cc1Cl`, the pKi was 7.62 in experiment [1], 8.72 in experiment [2], 9.30 in experiment [3] and 8.96 in experiment [4].

Regarding `Nc1c(F)cc(S(N)(=O)=O)cc1Br`, the negative-log Ki (pKi) was 7.16 in experiment [1], 6.95 in experiment [2], 7.48 in experiment [3] and 5.41 in experiment [4].

For the compound `CC(=O)Nc1ccc(S(=O)(=O)Nc2nnc(S(N)(=O)=O)s2)cc1I`, the figures for the negative-log Ki (pKi) in experiment [2], in experiment [3] and in experiment [4] were 8.35, 8.77 and 8.28, respectively.

On to `CC(=O)Nc1ccc(S(N)(=O)=O)cc1F`, for which the pKi in experiment [1] is 6.67; in experiment [2], 6.98; in experiment [3], 7.54; in experiment [4], 5.38.

As to `Nc1c(F)cc(S(=O)(=O)Nc2nnc(S(N)(=O)=O)s2)cc1Br`, the pKi is 7.57 in experiment [1], 8.72 in experiment [2], 9.70 in experiment [3] and 9.00 in experiment [4].

With `Nc1ccc(S(=O)(=O)Nc2nnc(S(N)(=O)=O)s2)cc1I`, the pKi in experiment [2] is 8.60; in experiment [3], 9.22; in experiment [4], 8.68.

Regarding `Nc1c(Cl)cc(S(=O)(=O)Nc2nnc(S(N)(=O)=O)s2)cc1Br`, the pKi in experiment [2] is 8.70; in experiment [3], 9.22; in experiment [4], 8.89.

In the case of `Nc1c(Br)cc(S(N)(=O)=O)cc1Br`, the pKi in experiment [1] was 7.17; in experiment [2], 6.76.

For the compound `Nc1c(Cl)cc(S(=O)(=O)Nc2nnc(S(N)(=O)=O)s2)cc1I`, the figures for the pKi in experiment [2], in experiment [3] and in experiment [4] were 8.57, 9.10 and 8.80, respectively.

For `Nc1ccc(S(=O)(=O)Nc2nnc(S(N)(=O)=O)s2)cc1Cl`, the pKi in experiment [1] is 7.34; in experiment [2], 8.62; in experiment [3], 9.22; in experiment [4] it was 8.60.

As to `CC(=O)Nc1ccc(S(N)(=O)=O)cc1Cl`, the negative logarithm of the Ki (pKi) in experiment [1] is 6.71; in experiment [2] it was 6.61; in experiment [3], 7.13; in experiment [4] it was 5.20.

With `Nc1c(F)cc(S(=O)(=O)Nc2nnc(S(N)(=O)=O)s2)cc1I`, the pKi is 7.68 in experiment [1], 8.68 in experiment [2], 9.52 in experiment [3] and 8.77 in experiment [4].

For `Nc1c(Br)cc(S(N)(=O)=O)cc1I`, the values for the pKi in experiment [2], in experiment [3] and in experiment [4] were 6.60, 6.97 and 4.90, respectively.

As to `Nc1c(Cl)cc(S(N)(=O)=O)cc1Br`, the pKi in experiment [1] was 7.48; in experiment [2], 6.68; in experiment [3] it was 7.27; in experiment [4], 5.12.

As for `CC(=O)Nc1ccc(S(N)(=O)=O)cc1I`, the pKi in experiment [1] is 6.68; in experiment [2], 6.94; in experiment [3], 7.33; in experiment [4], 5.48.

As for `Nc1c(I)cc(S(N)(=O)=O)cc1I`, the figures for the pKi in experiment [2] and in experiment [4] were 6.55 and 4.85, respectively.

For `Nc1c(I)cc(S(=O)(=O)Nc2nnc(S(N)(=O)=O)s2)cc1I`, the pKi was 7.39 in experiment [1], 8.64 in experiment [2] and 9.05 in experiment [3].

In the case of `Nc1c(Cl)cc(S(N)(=O)=O)cc1I`, the pKi in experiment [1] is 7.20; in experiment [2] it was 6.70; in experiment [3] it was 7.21; in experiment [4] it was 5.11.

As to `Nc1ccc(S(=O)(=O)Nc2nnc(S(N)(=O)=O)s2)cc1F`, the pKi in experiment [1] is 7.34; in experiment [2], 8.60; in experiment [3], 9.10; in experiment [4], 8.51.

As to `Nc1c(Br)cc(S(=O)(=O)Nc2nnc(S(N)(=O)=O)s2)cc1Br`, the pKi in experiment [1] is 7.41; in experiment [2] it was 8.77; in experiment [3], 9.30; in experiment [4], 9.00.

In the case of `CC(=O)Nc1ccc(S(N)(=O)=O)cc1Br`, the pKi in experiment [1] was 6.69; in experiment [2], 7.24; in experiment [3], 7.60; in experiment [4], 5.47.

For the compound `Nc1c(F)cc(S(N)(=O)=O)cc1I`, the negative logarithm of the Ki (pKi) in experiment [1] was 7.47; in experiment [2], 6.90; in experiment [3], 7.54; in experiment [4], 5.43.

Consider `Nc1c(Cl)cc(S(N)(=O)=O)cc1Cl`, for which the pKi in experiment [1] was 7.57; in experiment [2] it was 6.78; in experiment [3], 7.30; in experiment [4], 5.15.

For `Nc1ccc(S(=O)(=O)Nc2nnc(S(N)(=O)=O)s2)cc1Br`, the pKi is 7.33 in experiment [1], 8.62 in experiment [2], 9.15 in experiment [3] and 8.72 in experiment [4].

Take `Nc1c(F)cc(S(N)(=O)=O)cc1Cl`: the negative logarithm of the Ki (pKi) is 7.92 in experiment [1], 7.02 in experiment [2], 7.49 in experiment [3] and 5.42 in experiment [4].

As to `Nc1c(F)cc(S(=O)(=O)Nc2nnc(S(N)(=O)=O)s2)cc1Cl`, the pKi was 7.40 in experiment [1], 8.70 in experiment [2] and 8.85 in experiment [4].

In the case of `Nc1c(Br)cc(S(=O)(=O)Nc2nnc(S(N)(=O)=O)s2)cc1I`, the pKi in experiment [2] is 8.64; in experiment [3], 9.22; in experiment [4], 8.72.
